Test results published in patent US7423121B2, “Sodium channel rNav1.5a” (Neurosearch A/S, priority 2000, dated 2008).

How the values were obtained:
rNav1.5a = molecular target: T1, rNav1.5a (Rattus norvegicus, UniProt P15389); assay: Whole-cell recording of peak sodium current, inhibition by Lamotrigine, sodium channel expressed endogenously in HiB5 cells (rNav1.5a); assay type: cell-based
T1 construct: the Sodium Channel Expressed Endogenously in HiB5 Cells (rNav1.5a); endogenous in cells; host or cells: HiB5 (rat hippocampal stem cell line)
T1 sequence (P15389 1-1966 isoform P15389-2): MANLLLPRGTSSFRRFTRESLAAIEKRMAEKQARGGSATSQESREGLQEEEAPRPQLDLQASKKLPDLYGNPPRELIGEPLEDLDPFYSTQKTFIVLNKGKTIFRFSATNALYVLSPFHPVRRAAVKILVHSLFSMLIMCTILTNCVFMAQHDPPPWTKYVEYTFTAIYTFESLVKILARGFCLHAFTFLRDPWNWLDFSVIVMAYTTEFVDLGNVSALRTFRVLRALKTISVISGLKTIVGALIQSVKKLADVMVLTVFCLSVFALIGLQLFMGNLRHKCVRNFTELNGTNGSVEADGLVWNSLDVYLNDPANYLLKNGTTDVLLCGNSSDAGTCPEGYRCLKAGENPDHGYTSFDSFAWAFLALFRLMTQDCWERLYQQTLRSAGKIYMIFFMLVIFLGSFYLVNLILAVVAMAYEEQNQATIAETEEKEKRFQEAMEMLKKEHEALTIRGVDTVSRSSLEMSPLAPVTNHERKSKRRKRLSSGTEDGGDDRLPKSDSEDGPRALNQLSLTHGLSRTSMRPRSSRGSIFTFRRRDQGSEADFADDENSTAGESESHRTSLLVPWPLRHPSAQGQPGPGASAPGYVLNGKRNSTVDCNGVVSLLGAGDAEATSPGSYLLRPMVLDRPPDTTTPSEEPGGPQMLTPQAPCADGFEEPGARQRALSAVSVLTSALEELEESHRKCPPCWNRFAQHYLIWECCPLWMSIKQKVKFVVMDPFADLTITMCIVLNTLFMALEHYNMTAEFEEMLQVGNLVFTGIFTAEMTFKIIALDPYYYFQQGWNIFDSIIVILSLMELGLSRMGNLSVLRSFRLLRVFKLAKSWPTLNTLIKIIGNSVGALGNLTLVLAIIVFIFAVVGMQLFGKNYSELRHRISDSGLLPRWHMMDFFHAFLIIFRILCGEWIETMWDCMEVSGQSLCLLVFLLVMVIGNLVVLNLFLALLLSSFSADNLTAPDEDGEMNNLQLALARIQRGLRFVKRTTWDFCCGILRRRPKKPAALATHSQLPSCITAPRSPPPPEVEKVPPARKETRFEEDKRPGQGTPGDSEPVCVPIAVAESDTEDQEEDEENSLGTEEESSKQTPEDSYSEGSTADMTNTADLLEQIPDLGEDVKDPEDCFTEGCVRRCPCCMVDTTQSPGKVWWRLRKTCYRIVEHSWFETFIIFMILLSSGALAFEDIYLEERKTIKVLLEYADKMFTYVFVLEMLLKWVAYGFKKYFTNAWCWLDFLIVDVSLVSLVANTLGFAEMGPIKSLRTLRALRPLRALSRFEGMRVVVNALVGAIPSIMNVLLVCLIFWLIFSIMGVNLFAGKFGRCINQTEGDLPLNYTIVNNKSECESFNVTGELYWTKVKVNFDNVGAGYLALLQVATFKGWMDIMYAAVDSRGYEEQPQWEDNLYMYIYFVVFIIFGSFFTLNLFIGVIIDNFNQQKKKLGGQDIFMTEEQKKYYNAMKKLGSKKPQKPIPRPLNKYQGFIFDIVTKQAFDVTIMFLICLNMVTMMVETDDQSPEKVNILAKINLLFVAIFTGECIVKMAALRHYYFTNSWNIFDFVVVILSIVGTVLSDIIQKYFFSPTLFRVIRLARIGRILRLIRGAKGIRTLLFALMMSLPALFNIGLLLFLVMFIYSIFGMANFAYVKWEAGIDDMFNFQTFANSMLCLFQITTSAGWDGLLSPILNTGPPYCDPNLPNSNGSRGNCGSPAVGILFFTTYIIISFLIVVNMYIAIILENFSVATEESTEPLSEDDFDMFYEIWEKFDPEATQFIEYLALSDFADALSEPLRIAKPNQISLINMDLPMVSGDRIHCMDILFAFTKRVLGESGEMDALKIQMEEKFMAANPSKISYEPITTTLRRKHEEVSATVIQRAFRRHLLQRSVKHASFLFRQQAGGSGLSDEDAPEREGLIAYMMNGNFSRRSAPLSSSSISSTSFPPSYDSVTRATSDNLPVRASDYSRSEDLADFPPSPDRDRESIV
Experimental: (§1) Comparison of the Inhibitory Effect of Lamotrigine on the Classical Brain Type rNav1.2a and the Sodium Channel Expressed Endogenously in HiB5 Cells (rNav1.5a)
(§2) Experiments were performed as whole-cell recordings in physiological saline with stimulation of the sodium channel every 5 second by stepping from a holding potential (e.g. −90 mV) to −10 mV and monitoration of the peak current as a function of the concentration of Lamotrigine added to the recording chamber.

rNav1.2a = rNav1.2a (Rattus norvegicus, UniProt P04775); assay: Whole-cell recording of peak sodium current, inhibition by Lamotrigine, classical brain type rNav1.2a; assay type: cell-based; details: physiological saline, stimulation every 5 second, step from holding potential (e.g. −90 mV) to −10 mV
Experimental: as §1, §2

IC50 (rNav1.2a): 500 µM
SMILES: Nc1nnc(-c2cccc(Cl)c2Cl)c(N)n1 [Lamotrigine]
IC50 (rNav1.5a; HiB5 cells, whole-cell recording, physiological saline, stimulation every 5 second, step from holding potential (e.g. −90 mV) to −10 mV): 20 µM | Potency on rNav1.5a relative to classical brain subtype BIIA (rNav1.5a; comparison with BIIA (rNav1.2a), see Example 2): more potently
